How the values were obtained:
Dihydrofolate reductase = molecular target: T1, Dihydrofolate reductase (Bos taurus, UniProt P00376); assay: Inhibition of bovine liver DHFR
T1 sequence (P00376 whole entry): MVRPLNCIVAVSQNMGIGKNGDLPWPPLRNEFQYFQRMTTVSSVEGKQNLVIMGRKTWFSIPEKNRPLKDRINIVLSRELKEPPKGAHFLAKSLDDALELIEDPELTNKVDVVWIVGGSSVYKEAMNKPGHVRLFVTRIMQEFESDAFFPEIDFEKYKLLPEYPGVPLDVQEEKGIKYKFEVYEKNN

Staphylococcus aureus = assay: Antimicrobial activity against Staphylococcus aureus assessed as inhibition zone at 200 ug/disk after 24 hrs by disc-diffusion method; assay type: functional; conditions: read-out: IZ
Bacillus subtilis = assay: Antimicrobial activity against Bacillus subtilis assessed as inhibition zone at 200 ug/disk after 24 hrs by disc-diffusion method; assay type: functional; conditions: read-out: IZ
Escherichia coli = assay: Antimicrobial activity against Escherichia coli assessed as inhibition zone at 200 ug/disk after 24 hrs by disc-diffusion method; assay type: functional; conditions: read-out: IZ
Pseudomonas aeruginosa = assay: Antimicrobial activity against Pseudomonas aeruginosa assessed as inhibition zone at 200 ug/disk after 24 hrs by disc-diffusion method; assay type: functional; conditions: read-out: IZ
Candida albicans = assay: Antimicrobial activity against Candida albicans assessed as inhibition zone at 200 ug/disk after 24 hrs by disc-diffusion method; assay type: functional; conditions: read-out: IZ
CCRF-CEM = assay: Growth inhibition of human CCRF-CEM cells at 10 uM after 48 hrs; assay type: functional; conditions: read-out: GI
HL-60(TB) = assay: Growth inhibition of human HL-60(TB) cells at 10 uM after 48 hrs; assay type: functional; conditions: HL-60, 48 h, read-out: GI
K562 = assay: Growth inhibition of human K562 cells at 10 uM after 48 hrs; assay type: functional; conditions: K562, 48 h, read-out: GI
[1] = Growth inhibition of human MOLT4 cells at 10 uM after 48 hrs; assay type: functional; conditions: MOLT-4, 48 h, read-out: GI
[2] = Growth inhibition of human RPMI8226 cells at 10 uM after 48 hrs; assay type: functional; conditions: RPMI-8226, 48 h, read-out: GI
A549 = assay: Growth inhibition of human A549 cells at 10 uM after 48 hrs; assay type: functional; conditions: A549, 48 h, read-out: GI
[3] = Growth inhibition of human HOP92 cells at 10 uM after 48 hrs; assay type: functional; conditions: HOP-92, 48 h, read-out: GI
NCI-H226 = assay: Growth inhibition of human NCI-H226 cells at 10 uM after 48 hrs; assay type: functional; conditions: NCI-H226, 48 h, read-out: GI
NCI-H522 = assay: Growth inhibition of human NCI-H522 cells at 10 uM after 48 hrs; assay type: functional; conditions: NCI-H522, 48 h, read-out: GI
[4] = Growth inhibition of human COLO205 cells at 10 uM after 48 hrs; assay type: functional; conditions: COLO 205, 48 h, read-out: GI
[5] = Growth inhibition of human HCC2998 cells at 10 uM after 48 hrs; assay type: functional; conditions: HCC 2998, 48 h, read-out: GI
[6] = Growth inhibition of human HCT116 cells at 10 uM after 48 hrs; assay type: functional; conditions: HCT-116, 48 h, read-out: GI
[7] = Growth inhibition of human HCT15 cells at 10 uM after 48 hrs; assay type: functional; conditions: HCT-15, 48 h, read-out: GI
HT-29 = assay: Growth inhibition of human HT-29 cells at 10 uM after 48 hrs; assay type: functional; conditions: HT-29, 48 h, read-out: GI
SW-620 = assay: Growth inhibition of human SW620 cells at 10 uM after 48 hrs; assay type: functional; conditions: SW-620, 48 h, read-out: GI
[8] = Growth inhibition of human SF295 cells at 10 uM after 48 hrs; assay type: functional; conditions: SF-295, 48 h, read-out: GI
[9] = Growth inhibition of human SF539 cells at 10 uM after 48 hrs; assay type: functional; conditions: SF-539, 48 h, read-out: GI
SNB-75 = assay: Growth inhibition of human SNB75 cells at 10 uM after 48 hrs; assay type: functional; conditions: SNB-75, 48 h, read-out: GI
U-251 = assay: Growth inhibition of human U251 cells at 10 uM after 48 hrs; assay type: functional; conditions: U-251, 48 h, read-out: GI
[10] = Growth inhibition of human LOXIMVI cells at 10 uM after 48 hrs; assay type: functional; conditions: LOX IMVI, read-out: GI
M14 = assay: Growth inhibition of human M14 cells at 10 uM after 48 hrs; assay type: functional; conditions: M14, 48 h, read-out: GI
SK-MEL-5 = assay: Growth inhibition of human SK-MEL-5 cells at 10 uM after 48 hrs; assay type: functional; conditions: SK-MEL-5, 48 h, read-out: GI
[11] = Growth inhibition of human UACC257 cells at 10 uM after 48 hrs; assay type: functional; conditions: UACC-257, 48 h, read-out: GI
[12] = Growth inhibition of human UACC62 cells at 10 uM after 48 hrs; assay type: functional; conditions: UACC-62, 48 h, read-out: GI
[13] = Growth inhibition of human OVCAR4 cells at 10 uM after 48 hrs; assay type: functional; conditions: OVCAR-4, 48 h, read-out: GI
[14] = Growth inhibition of human OVCAR8 cells at 10 uM after 48 hrs; assay type: functional; conditions: OVCAR-8, 48 h, read-out: GI
[15] = Growth inhibition of human NCI-ADR-RES cells at 10 uM after 48 hrs; assay type: functional; conditions: read-out: GI
786-0 = assay: Growth inhibition of human 786-0 cells at 10 uM after 48 hrs; assay type: functional; conditions: 786-0, 48 h, read-out: GI
A498 = assay: Growth inhibition of human A498 cells at 10 uM after 48 hrs; assay type: functional; conditions: A498, 48 h, read-out: GI
ACHN = assay: Growth inhibition of human ACHN cells at 10 uM after 48 hrs; assay type: functional; conditions: read-out: GI
[16] = Growth inhibition of human RXF393 cells at 10 uM after 48 hrs; assay type: functional; conditions: RXF 393, 48 h, read-out: GI
SN12C = assay: Growth inhibition of human SN12C cells at 10 uM after 48 hrs; assay type: functional; conditions: read-out: GI
[17] = Growth inhibition of human UO31 cells at 10 uM after 48 hrs; assay type: functional; conditions: UO-31, 48 h, read-out: GI
[18] = Growth inhibition of human PC3 cells at 10 uM after 48 hrs; assay type: functional; conditions: PC-3, 48 h, read-out: GI
MCF7 = assay: Growth inhibition of human MCF7 cells at 10 uM after 48 hrs; assay type: functional; conditions: MCF7, 48 h, read-out: GI
[19] = Growth inhibition of human Hs 578T cells at 10 uM after 48 hrs; assay type: functional; conditions: read-out: GI
[20] = Growth inhibition of human BT549 cells at 10 uM after 48 hrs; assay type: functional; conditions: BT-549, 48 h, read-out: GI
T47D = assay: Growth inhibition of human T47D cells at 10 uM after 48 hrs; assay type: functional; conditions: read-out: GI
MDA-MB-468 = assay: Growth inhibition of human MDA-MB-468 cells at 10 uM after 48 hrs; assay type: functional; conditions: MDA-MB-468, 48 h, read-out: GI

COc1cc2nc(Sc3sc(N)nc3C)n(-c3ccc(Oc4ccccc4)cc3)c(=O)c2cc1OC
IC50 (Dihydrofolate reductase): 6 µM | zone of inhibition at 200 µg/disc (Staphylococcus aureus): 8 mm | zone of inhibition at 200 µg/disc (Bacillus subtilis): 8 mm | zone of inhibition at 200 µg/disc (Escherichia coli): 8 mm | zone of inhibition at 200 µg/disc (Pseudomonas aeruginosa): 8 mm | zone of inhibition at 200 µg/disc (Candida albicans): 8 mm | inhibition of growth at 10 µM (CCRF-CEM): 35.5% | inhibition of growth at 10 µM (HL-60(TB)): 21.2% | inhibition of growth at 10 µM (K562): 21.5% | inhibition of growth at 10 µM [1]: 46.1% | inhibition of growth at 10 µM [2]: 32.4% | inhibition of growth at 10 µM (A549): 16.7% | inhibition of growth at 10 µM [3]: 20.5% | inhibition of growth at 10 µM (NCI-H226): 10.3% | inhibition of growth at 10 µM (NCI-H522): 16.3% | inhibition of growth at 10 µM [4]: 24.1% | inhibition of growth at 10 µM [5]: 19.6% | inhibition of growth at 10 µM [6]: 52.7% | inhibition of growth at 10 µM [7]: 20.1% | inhibition of growth at 10 µM (HT-29): 25% | inhibition of growth at 10 µM (SW-620): 18.8% | inhibition of growth at 10 µM [8]: 14.6% | inhibition of growth at 10 µM [9]: 18.7% | inhibition of growth at 10 µM (SNB-75): 13.3% | inhibition of growth at 10 µM (U-251): 12.4% | inhibition of growth at 10 µM [10]: 21.7% | inhibition of growth at 10 µM (M14): 18.5% | inhibition of growth at 10 µM (SK-MEL-5): 23.2% | inhibition of growth at 10 µM [11]: 10.3% | inhibition of growth at 10 µM [12]: 18.6% | inhibition of growth at 10 µM [13]: 49.3% | inhibition of growth at 10 µM [14]: 15% | inhibition of growth at 10 µM [15]: 24.8% | inhibition of growth at 10 µM (786-0): 20% | inhibition of growth at 10 µM (A498): 18% | inhibition of growth at 10 µM (ACHN): 18.5% | inhibition of growth at 10 µM [16]: 14.1% | inhibition of growth at 10 µM (SN12C): 20.3% | inhibition of growth at 10 µM [17]: 23.9% | inhibition of growth at 10 µM [18]: 34.9% | inhibition of growth at 10 µM (MCF7): 25.7% | inhibition of growth at 10 µM [19]: 11.6% | inhibition of growth at 10 µM [20]: 28.7% | inhibition of growth at 10 µM (T47D): 22.7% | inhibition of growth at 10 µM (MDA-MB-468): 19.9%

— ChEMBL document CHEMBL3352542, “Synthesis, biological evaluation and molecular modeling study of 2-(1,3,4-thiadiazolyl-thio and 4-methyl-thiazolyl-thio)-quinazolin-4-ones as a new class of DHFR inhibitors” (Bioorg Med Chem Lett, 2014)
